# The source made the active and inactive calls. No rule for the calls is given here.
# Molecular target: Peptidyl-prolyl cis-trans isomerase FKBP1A (Homo sapiens) (UniProt P62942)
# Assay: small-molecule binding to FKBP12 – biophysical, NMR detection (AID 608)
# Conditions: purified FKBP12
# Chain of Peptidyl-prolyl cis-trans isomerase FKBP1A (Homo sapiens) (P62942 whole entry, looked up): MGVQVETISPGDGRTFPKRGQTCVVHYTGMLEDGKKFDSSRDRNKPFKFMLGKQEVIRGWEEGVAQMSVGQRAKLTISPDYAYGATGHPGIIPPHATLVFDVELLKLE
row,SMILES,Kd
1,Nc1ccc(Cc2ccncc2)cc1,> 4 mM (inactive)
2,CC(=O)c1ccc(NS(=O)(=O)c2cccc(C)c2)cc1,> 4 mM (inactive)
3,COc1ccc(-c2coc3c(OC)c(OC)cc(OC)c3c2=O)cc1,> 4 mM (inactive)
4,O=C(NCc1ccco1)c1ccc(=O)[nH]c1,> 4 mM (inactive)
5,CC1(C)C(=O)C=C[C@@]2(C)C1C=C[C@]1(C)C2CC[C@@]2(C)[C@H](c3ccoc3)OC(=O)C3OC321 (stereo partly drawn),> 4 mM (inactive)
6,CC1NC(C(=O)O)Cc2c1[nH]c1ccccc21 (stereo not drawn),> 4 mM (inactive)
7,O=C(O)CNS(=O)(=O)c1cccs1,> 4 mM (inactive)
8,CN(C)c1ccc(C2CC(=O)CC(=O)C2)cc1,> 4 mM (inactive)
9,CC(=O)O[C@H]1C[C@@H](OC(C)=O)C(C)(C)C2CC(=O)[C@]3(C)C(CC[C@@]4(C)[C@H](c5ccoc5)OC(=O)[C@H]5O[C@]543)[C@]21C (stereo partly drawn),> 4 mM (inactive)
10,O=C(c1cc2ccccc2o1)c1nc2c(n1O)CCCCC2,> 4 mM (inactive)
11,Cc1ccccc1N1C(=O)CC(=O)NC1=O,> 4 mM (inactive)
12,NC(=O)NC(=O)Nc1ccc(Cl)cc1,> 4 mM (inactive)
13,Clc1ccccc1OCCn1ccnc1,> 4 mM (inactive)
14,Cc1noc(C)c1C(=O)Nc1ccccn1,> 4 mM (inactive)
15,CC[C@H]1CN2CCc3cc(OC)c(OC)cc3C2C[C@@H]1CC1NCCc2cc(OC)c(OC)cc21 (stereo partly drawn),> 4 mM (inactive)
16,COc1ccc(C(C)=O)c(O)c1,> 4 mM (inactive)
17,COc1cccc(/C=C2/SC(N)=NC2=O)c1,> 4 mM (inactive)
18,Cc1nccn1CCC(=O)O,> 4 mM (inactive)
19,CNC(=S)Nc1ccc(OC)cc1C,> 4 mM (inactive)
20,O=C(c1ccc(Cl)s1)N1CCOCC1,> 4 mM (inactive)
21,CSc1nc2cc(F)c(F)cc2n1C,> 4 mM (inactive)
22,NC(=O)Cn1nc(-c2ccc(F)cc2)ccc1=O,> 4 mM (inactive)

row,SMILES,Kd
1,O=C(NCC1CCNCC1)c1ccncc1,> 4 mM (inactive)
2,Cn1c(CN)nc2ccccc21,> 4 mM (inactive)
3,O=C(NCCO)NC(=S)c1ccccc1,> 4 mM (inactive)
4,Cc1nn(C)c(N2CCOCC2)c1N,> 4 mM (inactive)
5,CCOC(=O)C1CCN(c2ncnc3nc[nH]c23)CC1,> 4 mM (inactive)
6,O=C1C2CCCCC2C(=O)N1c1nccs1 (stereo not drawn),> 4 mM (inactive)
7,O=C(O)/C=C/C(=O)Nc1ccccc1C(F)(F)F,> 4 mM (inactive)
8,CC1CCN(C(=O)c2cc3ccccc3o2)CC1,> 4 mM (inactive)
9,O=C(O)c1cc(F)cc2c1OCOC2,> 4 mM (inactive)
10,CCn1c2ccccc2c2nn(C)c(=N)nc21,> 4 mM (inactive)
11,CC(=O)Nc1ccc2c(c1)n(C)c(=O)n2C,> 4 mM (inactive)
12,COC(=O)c1ccccc1N(C)S(C)(=O)=O,> 4 mM (inactive)
13,O=S(=O)(c1ccc(F)c(Cl)c1)N1CCCC1,> 4 mM (inactive)
14,CC(C)=CCc1c2c(c(O)c3c(=O)c(O)c(-c4ccccc4)oc13)C=CC(C)(C)O2,> 4 mM (inactive)
15,CC(C)c1nnc(N)s1,> 4 mM (inactive)
16,CNC[C@@H](O)c1ccc(O)c(O)c1,> 4 mM (inactive)
17,c1ccc(C2NCCc3[nH]cnc32)cc1 (stereo not drawn),> 4 mM (inactive)
18,OCCNC(=S)Nc1ccccc1,> 4 mM (inactive)
19,O=C(Nc1cccnc1)N1CCOCC1,> 4 mM (inactive)
20,O=C1CCc2ccccc2CN1,> 4 mM (inactive)
21,CC(=O)Nc1ccc(NC(C)=O)c(C(F)(F)F)c1,> 4 mM (inactive)
22,COc1ccc(C(C)=O)c(OC)c1,> 4 mM (inactive)

row,SMILES,Kd
1,O=C1CN(C(=O)c2ccccc2)c2ccccc2N1,> 4 mM (inactive)
2,O=C1CCC(C(=O)NCc2cccnc2)N1 (stereo not drawn),> 4 mM (inactive)
3,Cc1cc(Cl)ccc1OC(C)C(=O)N1CCOCC1 (stereo not drawn),inactive
4,Cc1nc2ccccc2n1S(=O)(=O)N1CCOCC1,inactive
5,Cc1cc(C)n(CC(=O)NC2CCCCC2)n1,> 4 mM (inactive)
6,O=C(O)C1CNc2ccccc2O1 (stereo not drawn),> 4 mM (inactive)
7,NC(=O)C1CCN(C(=O)Nc2ccccc2)CC1,> 4 mM (inactive)
8,O=C(O[C@@H]1Cc2c(O)cc(O)cc2O[C@@H]1c1ccc(O)c(O)c1)c1cc(O)c(O)c(O)c1,> 4 mM (inactive)
9,c1coc(CNc2ncnc3nc[nH]c23)c1,> 4 mM (inactive)
10,C=C1C(N)CC2CC1C2(C)C (stereo not drawn),> 4 mM (inactive)
11,CN(C)S(=O)(=O)c1ccc(NC=O)cc1,> 4 mM (inactive)
12,Cc1cccc(N2C(=O)CC(=O)NC2=O)c1,> 4 mM (inactive)
13,COc1c2c(cc3cc[n+](C)cc13)OCO2,> 4 mM (inactive)
14,Cn1c(=O)c2c(ncn2C)n(C)c1=O,> 4 mM (inactive)
15,Cc1cc(SCC(=O)Nc2nccs2)nc(=O)[nH]1,> 4 mM (inactive)
16,Nc1ccc2sccc2c1,> 4 mM (inactive)
17,CCn1cnc(C(=O)NC)c1C(=O)NC,> 4 mM (inactive)
18,C[C@]12C=CC(=O)C=C1CCC1C2CC[C@]2(C)C(=O)CCC12 (stereo partly drawn),> 4 mM (inactive)
19,O=C(/C=C(\O)c1ccccc1)c1ccccc1O,> 4 mM (inactive)
20,Nc1nc(SCc2ccc3c(c2)OCCO3)n[nH]1,> 4 mM (inactive)
21,Cc1occc1C(=O)Nc1sccc1C(N)=O,> 4 mM (inactive)
22,CC(Sc1ncn[nH]1)C(=O)O (stereo not drawn),> 4 mM (inactive)

row,SMILES,Kd
1,Cc1cc(O)c(C)c(O)c1C(=O)O,> 4 mM (inactive)
2,COc1nc(C#N)c(N2CCOCC2)o1,> 4 mM (inactive)
3,Cc1ccc(S(=O)(=O)CC(=O)N2CCCC2)cc1,> 4 mM (inactive)
4,Cc1c(-c2ccc(F)cc2)[n+](=O)c2c(n1[O-])CCC2,> 4 mM (inactive)
5,O=[N+]([O-])c1ccc(NS(=O)(=O)N2CCCCC2)cc1,0.06 mM
6,c1ccc(CN2CCC3(CC2)Nc2ccccc2CO3)cc1,> 4 mM (inactive)
7,O=C1CNC(=O)N1c1cccc(Cl)c1,> 4 mM (inactive)
8,O=C(O)CS(=O)(=O)c1ccccc1,> 4 mM (inactive)
9,C/C=C(\C)C(=O)O[C@@H]1c2c(ccc3ccc(=O)oc23)OC(C)(C)[C@@H]1OC(C)=O,> 4 mM (inactive)
10,O=C(O)CCCc1nc2ccccc2s1,> 4 mM (inactive)
11,O=c1ccn([C@@H]2O[C@H](COP(=O)(O)OP(=O)(O)OP(=O)(O)O)[C@@H](O)[C@H]2O)c(=O)[nH]1,> 4 mM (inactive)
12,COc1ccc(Cc2nccc3cc(OC)c(OC)cc23)cc1OC,> 4 mM (inactive)
13,O=C(O)/C=C1\NC(=O)c2ccccc21,> 4 mM (inactive)
14,Nc1nc(N)nc(N2C(=O)c3ccccc3C2=O)n1,> 4 mM (inactive)
15,CC(=O)Nc1ccc(NC(C)=O)cc1,> 4 mM (inactive)
16,CC1CCC2(OC1)OC1CC3C4CC[C@H]5C[C@@H](O)CC[C@]5(C)C4CC(=O)[C@]3(C)C1C2C (stereo partly drawn),> 4 mM (inactive)
17,O=C(Nc1ccc2ccccc2c1)c1cnccn1,> 4 mM (inactive)
18,Nc1ccc(F)cc1F,> 4 mM (inactive)
19,Cn1cnc2cc(NC(=O)c3ccco3)ccc21,> 4 mM (inactive)
20,COc1ccccc1N1C(=N)SCC1=O,> 4 mM (inactive)
21,Cc1nnc(SCc2ccc(F)cc2)s1,> 4 mM (inactive)
22,CCc1noc(C)c1C(=O)N1CCCC1,> 4 mM (inactive)

# Reference: PubChem BioAssay AID608 (Sanford-Burnham Center for Chemical Genomics, 2007)
